Results published in ChEMBL document CHEMBL4000146, “Synthesis, antiplasmodial activity and mechanistic studies of pyrimidine-5-carbonitrile and quinoline hybrids” (Eur J Med Chem, 2015).

How the values were obtained:
Plasmodium falciparum [1] = experiment: Resistance index, ratio of IC50 for chloroquine-resistant asexual intraerythrocytic stage of Plasmodium falciparum Dd2 to IC50 for chloroquine-sensitive asexual intraerythrocytic stage of Plasmodium falciparum NF54; format: functional
L1210 = experiment: Cytotoxicity against mouse L1210 cells assessed as inhibition of cell proliferation by Coulter counter analysis; format: cell-based
CCRF-CEM = experiment: Cytotoxicity against human CEM cells assessed as inhibition of cell proliferation by Coulter counter analysis; format: cell-based
HeLa = experiment: Cytotoxicity against human HeLa cells assessed as inhibition of cell proliferation by Coulter counter analysis; format: cell-based
[2] = Selectivity index, ratio of IC50 for human HeLa cells to IC50 for chloroquine-sensitive asexual intraerythrocytic stage of Plasmodium falciparum NF54; format: toxicity, cell-based; settings: read-out: Ratio IC50
[3] = Selectivity index, ratio of IC50 for human HeLa cells to IC50 for chloroquine-resistant asexual intraerythrocytic stage of Plasmodium falciparum Dd2; format: toxicity, cell-based; settings: read-out: Ratio IC50
[4] = Cytotoxicity against human HEL cells assessed as alteration of normal cell morphology by microscopic analysis; format: cell-based
[5] = Cytotoxicity against human HEL cells assessed as inhibition of cell viability by colorimetric formazan-based MTS assay
[6] = Cytotoxicity against human HeLa cells assessed as alteration of normal cell morphology by microscopic analysis; format: cell-based
[7] = Cytotoxicity against african green monkey Vero cells assessed as alteration of normal cell morphology by microscopic analysis; format: cell-based; settings: chlorocebus sabaeus
Human alphaherpesvirus 1 [8] = format: functional, cell-based; settings: Human alphaherpesvirus 1, KOS, HEL
Human alphaherpesvirus 2 = format: functional, cell-based; settings: Human alphaherpesvirus 2, G, HEL
Human alphaherpesvirus 1 [9] = format: functional, cell-based; settings: Human alphaherpesvirus 1, KOS, HEL; remark: listed apart in the source
unidentified adenovirus = format: functional, cell-based; settings: HEL
Coxsackievirus [10] = format: functional, cell-based; settings: B4, HeLa
Human orthopneumovirus = format: functional, cell-based; settings: human respiratory syncytial virus, HeLa
Human respirovirus 3 = format: functional; settings: Human respirovirus 3, Vero
[11] = test system: Mammalian orthoreovirus 1; format: functional; settings: Mammalian orthoreovirus 1, Vero
Sindbis virus = format: functional; settings: Vero
Coxsackievirus [12] = format: functional; settings: B4, Vero
Punta Toro virus = format: functional; settings: Vero
Human betaherpesvirus 5 [13] = format: functional, cell-based; settings: Human betaherpesvirus 5, AD169, HEL
Human betaherpesvirus 5 [14] = format: functional, cell-based; settings: Human betaherpesvirus 5, Davis, HEL
Human alphaherpesvirus 3 [15] = format: functional, cell-based; settings: Human alphaherpesvirus 3, strain Oka vaccine, HEL
Human alphaherpesvirus 3 [16] = format: functional, cell-based; settings: Human alphaherpesvirus 3, 07-1, HEL
[17] = Cytotoxicity against MDCK cells assessed as alteration of normal cell morphology by microscopic analysis; format: cell-based, Canis lupus familiaris; settings: dog
[18] = Cytotoxicity against MDCK cells assessed as inhibition of cell viability by colorimetric formazan-based MTS assay; design: species or system Canis lupus familiaris; settings: dog
Plasmodium falciparum [19] = experiment: microbe, parasite or virus in culture; settings: NF54
Plasmodium falciparum [20] = experiment: microbe, parasite or virus in culture; settings: Dd2
Vaccinia virus = experiment: microbe, parasite or virus in culture; settings: Orthopoxvirus vaccinia, HEL
[21] = test system: Vesicular stomatitis virus; experiment: microbe, parasite or virus in culture; settings: HEL
[22] = test system: Vesicular stomatitis virus; experiment: microbe, parasite or virus in culture; settings: HeLa
Influenza A virus [23] = experiment: microbe, parasite or virus in culture; settings: H1N1, MDCK
Influenza A virus [24] = experiment: microbe, parasite or virus in culture; settings: H3N2, MDCK
Influenza B virus = experiment: microbe, parasite or virus in culture; settings: MDCK

Structure (SMILES)	MCC [4] [µM]	MCC [6] [µM]	MCC [7] [µM]	EC50 (Human alphaherpesvirus 1 [8]) [µM]	EC50 (Human alphaherpesvirus 2) [µM]	EC50 (Human alphaherpesvirus 1 [9]) [µM]	EC50 (Human orthopneumovirus) [µM]	EC50 [11] [µM]	EC50 (Sindbis virus) [µM]	EC50 (Coxsackievirus [12]) [µM]	EC50 (Human betaherpesvirus 5 [13]) [µM]	EC50 (Human betaherpesvirus 5 [14]) [µM]	EC50 (Human alphaherpesvirus 3 [15]) [µM]	EC50 (Human alphaherpesvirus 3 [16]) [µM]	CC50 [18] [µM]	EC50 (Vaccinia virus) [µM]	EC50 [21] [µM]	EC50 (Influenza A virus [23]) [µM]	EC50 (Influenza A virus [24]) [µM]	EC50 (Influenza B virus) [µM]	other results
CSc1nc(NCCCCNc2ccnc3cc(Cl)ccc23)c(C#N)c(-c2ccc([N+](=O)[O-])cc2)n1	4	4	4	> 0.8	> 0.8	> 0.8	> 0.8	> 0.8	> 0.8	> 0.8	> 0.8	> 0.8	> 0.8	> 0.8	2	> 0.8	> 0.8	> 0.8	> 0.8	> 0.8	Ratio IC50 (Plasmodium falciparum [1]): 12.13; IC50 (L1210): 0.96 µM; IC50 (CCRF-CEM): 0.76 µM; IC50 (HeLa): 0.89 µM; selectivity ratio [2]: 20.3; selectivity ratio [3]: 1.6; CC50 [5]: 1.7 µM; EC50 (unidentified adenovirus): > 0.8 µM; EC50 (Coxsackievirus [10]): > 0.8 µM; EC50 (Human respirovirus 3): > 0.8 µM; EC50 (Punta Toro virus): > 0.8 µM; MCC [17]: 4 µM; IC50 (Plasmodium falciparum [19]): 0.0438 µM; IC50 (Plasmodium falciparum [20]): 0.532 µM; EC50 [22]: > 0.8 µM
N#Cc1c(NCCCCNc2ccnc3cc(Cl)ccc23)nc(N2CCOCC2)nc1-c1ccccc1	20	20	20	> 4	> 4	> 4	> 4	> 4	> 4	> 4	> 4	> 4	> 4	> 4	10.9	> 4	> 4	> 4	> 4	> 4	Ratio IC50 (Plasmodium falciparum [1]): 1.95; IC50 (L1210): 4.2 µM; IC50 (CCRF-CEM): 4.6 µM; IC50 (HeLa): 17 µM; selectivity ratio [2]: 86.3; selectivity ratio [3]: 44; CC50 [5]: 11.9 µM; EC50 (unidentified adenovirus): > 4 µM; EC50 (Coxsackievirus [10]): > 4 µM; EC50 (Human respirovirus 3): > 4 µM; EC50 (Punta Toro virus): > 4 µM; MCC [17]: 20 µM; IC50 (Plasmodium falciparum [19]): 0.198 µM; IC50 (Plasmodium falciparum [20]): 0.386 µM; EC50 [22]: > 4 µM
CCN(CC)CCCC(C)Nc1ccnc2cc(Cl)ccc12 (stereo not given) [CHLOROQUINE]	≥ 20	> 100	> 100	> 20	> 20	> 20	> 100	> 100	> 100	> 100	> 20	> 4	> 4	> 4	55.6	> 20	> 20	> 20	> 20	> 20	IC50 (L1210): 15 µM; IC50 (CCRF-CEM): 23 µM; IC50 (HeLa): 18 µM; CC50 [5]: 58.5 µM; EC50 (unidentified adenovirus): > 20 µM; EC50 (Coxsackievirus [10]): > 100 µM; EC50 (Human respirovirus 3): > 100 µM; EC50 (Punta Toro virus): > 100 µM; MCC [17]: 100 µM; EC50 [22]: > 100 µM
CSc1nc(-c2ccc([N+](=O)[O-])cc2)c(C#N)c(N2CCN(c3ccnc4cc(Cl)ccc34)CC2)n1	≥ 100	> 100	100	> 100	> 100	> 100	> 100	> 20	> 20	> 20	> 100	> 100	> 100	> 100	> 100	> 100	> 100	> 100	> 100	> 100	Ratio IC50 (Plasmodium falciparum [1]): 0.8; IC50 (L1210): 206 µM; IC50 (CCRF-CEM): 156 µM; IC50 (HeLa): 228 µM; selectivity ratio [2]: 18.6; selectivity ratio [3]: 23.1; CC50 [5]: > 100 µM; EC50 (unidentified adenovirus): > 100 µM; EC50 (Coxsackievirus [10]): > 100 µM; EC50 (Human respirovirus 3): > 20 µM; EC50 (Punta Toro virus): > 20 µM; MCC [17]: > 100 µM; IC50 (Plasmodium falciparum [19]): 12.2 µM; IC50 (Plasmodium falciparum [20]): 9.86 µM; EC50 [22]: > 100 µM
NC(=O)c1ncn([C@@H]2O[C@H](CO)[C@@H](O)[C@H]2O)n1 [RIBAVIRIN]		> 250	> 250				10	> 250	> 250	250					100			7.2 to 9	6.9 to 9	4 to 4.5	
Nc1nc2c(ncn2COCCO)c(=O)[nH]1 [ACYCLOVIR]	250 to 400			0.2	0.1	10					1.24	0.51	1.69	49.3		> 250	> 250				
